# Measured values: US10988477B2 (Merck Patent GmbH, priority 2018, dated 2021)
# What was measured:
# [1] = target: GCN2 kinase (Homo sapiens, UniProt Q9P2K8); assay: GCN2 enzyme inhibition assay (Transcreener ADP2 fluorescence polarization); assay type: biochemical; details: compounds of Formula II; 280 μM ATP, 4 nM GCN2 kinase
# How it was run: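 4 nM GCN2 + 200 μM (RS)7 + compound (0–8 μM), 10 min preinc.; start with ATP (280 μM final); 1 h, 25 °C; pH 7.5 Tris/NaCl/MgCl2/DTT; ADP FP readout; IC50, Ki(app) via tight-binding fit.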
# [2] = target: intracellular GCN2 (phosphorylation of the GCN2 substrate eIF2α) (Homo sapiens, UniProt Q9P2K8); assay: GCN2 cellular inhibition assay (AlphaScreen SureFire P-eIF2α Ser51, borrelidin-treated U2OS cells); assay type: cell-based; details: compounds of Formula II; biomarker assay, phosphorylated eIF2α Ser51 in borrelidin-treated U2OS cells
# Sequence of intracellular GCN2 (phosphorylation of the GCN2 substrate eIF2α) (Q9P2K8 whole entry): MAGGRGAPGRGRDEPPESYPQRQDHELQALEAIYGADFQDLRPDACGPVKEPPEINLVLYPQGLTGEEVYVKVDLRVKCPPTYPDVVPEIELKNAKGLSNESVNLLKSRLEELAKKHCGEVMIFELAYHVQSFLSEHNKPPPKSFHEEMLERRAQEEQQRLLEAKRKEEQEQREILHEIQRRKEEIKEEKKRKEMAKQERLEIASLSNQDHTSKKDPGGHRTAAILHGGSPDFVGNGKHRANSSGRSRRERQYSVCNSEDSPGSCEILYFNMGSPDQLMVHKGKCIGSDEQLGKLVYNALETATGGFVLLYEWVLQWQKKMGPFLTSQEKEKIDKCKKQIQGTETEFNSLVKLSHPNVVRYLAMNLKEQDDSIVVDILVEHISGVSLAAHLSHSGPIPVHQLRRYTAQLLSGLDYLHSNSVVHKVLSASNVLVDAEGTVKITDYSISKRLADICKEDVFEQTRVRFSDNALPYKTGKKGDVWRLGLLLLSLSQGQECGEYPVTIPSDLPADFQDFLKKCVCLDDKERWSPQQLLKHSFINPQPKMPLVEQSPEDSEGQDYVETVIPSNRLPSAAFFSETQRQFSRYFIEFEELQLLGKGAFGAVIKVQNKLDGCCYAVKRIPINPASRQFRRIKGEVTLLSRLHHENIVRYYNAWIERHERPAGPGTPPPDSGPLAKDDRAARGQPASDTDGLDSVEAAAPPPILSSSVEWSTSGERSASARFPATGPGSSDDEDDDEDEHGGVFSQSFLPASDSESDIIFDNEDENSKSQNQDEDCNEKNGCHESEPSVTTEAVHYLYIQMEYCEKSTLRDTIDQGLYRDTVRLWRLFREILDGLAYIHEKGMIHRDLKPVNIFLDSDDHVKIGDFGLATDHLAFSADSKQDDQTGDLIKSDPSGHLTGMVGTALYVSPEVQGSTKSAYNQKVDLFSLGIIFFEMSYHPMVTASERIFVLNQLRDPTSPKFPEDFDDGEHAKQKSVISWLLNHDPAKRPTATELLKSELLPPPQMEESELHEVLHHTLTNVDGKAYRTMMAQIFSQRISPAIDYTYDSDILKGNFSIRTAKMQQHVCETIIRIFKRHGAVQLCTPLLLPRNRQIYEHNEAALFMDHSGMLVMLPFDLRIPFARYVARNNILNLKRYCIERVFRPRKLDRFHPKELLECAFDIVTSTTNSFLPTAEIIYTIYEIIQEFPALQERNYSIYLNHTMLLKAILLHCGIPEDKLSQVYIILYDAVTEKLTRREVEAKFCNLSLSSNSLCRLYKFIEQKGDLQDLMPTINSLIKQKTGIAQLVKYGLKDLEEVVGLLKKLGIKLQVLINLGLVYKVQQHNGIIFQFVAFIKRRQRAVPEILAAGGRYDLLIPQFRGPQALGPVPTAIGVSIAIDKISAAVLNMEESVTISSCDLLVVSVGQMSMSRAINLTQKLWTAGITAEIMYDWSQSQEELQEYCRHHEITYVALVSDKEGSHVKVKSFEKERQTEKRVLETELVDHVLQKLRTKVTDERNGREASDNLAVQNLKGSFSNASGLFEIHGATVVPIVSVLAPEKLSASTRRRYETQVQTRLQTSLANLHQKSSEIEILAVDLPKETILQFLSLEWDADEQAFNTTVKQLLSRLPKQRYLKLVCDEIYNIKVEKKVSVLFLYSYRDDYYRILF
# How it was run: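 U2OS cells, adhered overnight, received compounds in 4-fold serial dilutions from 40 μM final, then 10 μM borrelidin for 1 h at 37 °C. Lysates were read by AlphaScreen for phospho-eIF2α Ser51; percent inhibition was set against borrelidin-only wells.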
# Sequence of GCN2 kinase (Q9P2K8 whole entry): as above
SMILES,Ki [1],IC50 [2]
"CS(=O)(=O)N[C@@H]1CCCN(c2cc(-c3cnc4ccc(C(F)F)nn34)ncn2)C1 (single isomer, unassigned) [II-405]",10 to 1000 nM,500 to 5000 nM
"CC1C(CO)OCCN1c1cc(-c2cnc3ccc(C(F)F)nn23)ncn1 (single isomer, unassigned) [II-413, (4-(6-(6-(Difluoromethyl)imidazo[1,2-b]pyridazin-3-yl)pyrimidin-4-yl)-3-methylmorpholin-2-yl)methanol]",> 1000 nM,> 5000 nM
"CC1C(CO)OCCN1c1cc(-c2cnc3ccc(C(F)F)nn23)ncn1 (single isomer, unassigned) [II-414, (4-(6-(6-(Difluoromethyl)imidazo[1,2-b]pyridazin-3-yl)pyrimidin-4-yl)-3-methylmorpholin-2-yl)methanol]",10 to 1000 nM,> 5000 nM
"CCC1C(CNS(C)(=O)=O)CCCN1c1cc(-c2cnc3ccc(C(F)F)nn23)ncn1 (single isomer, unassigned) [II-416]",< 10 nM,< 500 nM
"CC1CC(CNS(C)(=O)=O)CN(c2cc(-c3cnc4ccc(C(F)F)nn34)ncn2)C1 (single isomer, unassigned) [II-436, N-((1-(6-(6-(Difluoromethyl)imidazo[1,2-b]pyridazin-3-yl)pyrimidin-4-yl)-5-methylpiperidin-3-yl)methyl)methanesulfonamide]",10 to 1000 nM,500 to 5000 nM
"CC1CC(CNS(C)(=O)=O)CN(c2cc(-c3cnc4ccc(C(F)F)nn34)ncn2)C1 (single isomer, unassigned) [II-437, N-((1-(6-(6-(Difluoromethyl)imidazo[1,2-b]pyridazin-3-yl)pyrimidin-4-yl)-5-methylpiperidin-3-yl)methyl)methanesulfonamide]",< 10 nM,< 500 nM
"CC1C(CNS(C)(=O)=O)C(F)(F)C(C)CN1c1cc(-c2cnc3ccc(C(F)F)nn23)ncn1 (single isomer, unassigned) [II-469, N-((1-(6-(6-(Difluoromethyl)imidazo[1,2-b]pyridazin-3-yl)pyrimidin-4-yl)-4,4-difluoro-2,5-dimethylpiperidin-3-yl)methyl)methanesulfonamide]",10 to 1000 nM,500 to 5000 nM
"CC1C(CNS(C)(=O)=O)C(F)(F)C(C)CN1c1cc(-c2cnc3ccc(C(F)F)nn23)ncn1 (single isomer, unassigned) [II-470, N-((1-(6-(6-(Difluoromethyl)imidazo[1,2-b]pyridazin-3-yl)pyrimidin-4-yl)-4,4-difluoro-2,5-dimethylpiperidin-3-yl)methyl)methanesulfonamide]",10 to 1000 nM,500 to 5000 nM
"C[C@H]1[C@@H](CNS(C)(=O)=O)C(F)(F)[C@@H](C)CN1c1cc(-c2cnc3ccc(C(F)F)nn23)ncn1 (single isomer, unassigned) [II-472]",< 10 nM,< 500 nM
"CC1C(CNS(C)(=O)=O)N(C2CC2)CCN1c1cc(-c2cnc3ccc(C(F)F)nn23)ncn1 (single isomer, unassigned) [II-479, N-((1-Cyclopropyl-4-(6-(6-(difluoromethyl)imidazo[1,2-b]pyridazin-3-yl)pyrimidin-4-yl)-3-methylpiperazin-2-yl)methyl)methanesulfonamide]",< 10 nM,< 500 nM
"CS(C)(=O)=N[C@H]1CCCN(c2cc(-c3cnc4ccc(C(F)F)nn34)ncn2)C1 (single isomer, unassigned) [II-502]",10 to 1000 nM,< 500 nM
"CS(C)(=O)=NC1CCCN(c2cc(-c3cnc4ccc(C(F)F)nn34)ncn2)C1 (single isomer, unassigned) [II-503, ((1-(6-(6-(Difluoromethyl)imidazo[1,2-b]pyridazin-3-yl)pyrimidin-4-yl)piperidin-3-yl)imino)dimethyl-λ^6-sulfanone]",10 to 1000 nM,500 to 5000 nM
"C[C@H](NS(C)(=O)=O)[C@@H]1CN(c2cc(-c3cnc4ccc(C(F)F)nn34)ncn2)CCO1 (single isomer, unassigned) [II-509]",< 10 nM,< 500 nM
"CC(NS(C)(=O)=O)[C@@H]1CN(c2cc(-c3cnc4ccc(C(F)F)nn34)ncn2)CCO1 (single isomer, unassigned) [II-510]",10 to 1000 nM,500 to 5000 nM
"C[C@@H]1CC(N=S(C)(C)=O)CN(c2cc(-c3cnc4ccc(C(F)F)nn34)ncn2)C1 (single isomer, unassigned) [II-541]",< 10 nM,< 500 nM
"CCN1CCN(c2cc(-c3cnc4ccc(C(F)F)nn34)ncn2)C(C)C1CNS(C)(=O)=O (single isomer, unassigned) [II-542, N-((4-(6-(6-(Difluoromethyl)imidazo[1,2-b]pyridazin-3-yl)pyrimidin-4-yl)-1-ethyl-3-methylpiperazin-2-yl)methyl)methanesulfonamide]",< 10 nM,< 500 nM
"CCN1CCN(c2cc(-c3cnc4ccc(C(F)F)nn34)ncn2)C(C)C1CNS(C)(=O)=O (single isomer, unassigned) [II-543, N-((4-(6-(6-(difluoromethyl)imidazo[1,2-b]pyridazin-3-yl)pyrimidin-4-yl)-1-ethyl-3-methylpiperazin-2-yl)methyl)methanesulfonamide]",10 to 1000 nM,500 to 5000 nM
"CC1CC(CNS(C)(=O)=O)C(C)N(c2cc(-c3cnc4ccc(C(F)F)nn34)ncn2)C1 (single isomer, unassigned) [II-546, N-((1-(6-(6-(Difluoromethyl)imidazo[1,2-b]pyridazin-3-yl)pyrimidin-4-yl)-2,5-dimethylpiperidin-3-yl)methyl)methanesulfonamide]",< 10 nM,< 500 nM
"C[C@@H]1C[C@H](N=S(C)(C)=O)[C@H](C)N(c2cc(-c3cnc4ccc(C(F)F)nn34)ncn2)C1 (single isomer, unassigned) [II-631]",< 10 nM,< 500 nM
"CCC1CC(N=S(C)(C)=O)CN(c2cc(-c3cnc4ccc(C(F)F)nn34)ncn2)C1 (single isomer, unassigned) [II-650, ((1-(6-(6-(Difluoromethyl)imidazo[1,2-b]pyridazin-3-yl)pyrimidin-4-yl)-5-ethylpiperidin-3-yl)imino)dimethyl-λ^6-sulfanone]",< 10 nM,< 500 nM

# The remaining lines, values ahead:
Ki [1],IC50 [2],SMILES
10 to 1000 nM,500 to 5000 nM,"CCC1C(CNS(C)(=O)=O)CCCN1c1cc(-c2cnc3ccc(C(F)F)nn23)ncn1 (single isomer, unassigned) [II-417]"
10 to 1000 nM,> 5000 nM,"CC1C(CNS(C)(=O)=O)C(F)(F)C(C)CN1c1cc(-c2cnc3ccc(C(F)F)nn23)ncn1 (single isomer, unassigned) [II-471, N-((1-(6-(6-(Difluoromethyl)imidazo[1,2-b]pyridazin-3-yl)pyrimidin-4-yl)-4,4-difluoro-2,5-dimethylpiperidin-3-yl)methyl)methanesulfonamide]"
10 to 1000 nM,500 to 5000 nM,"CC1C(CNS(C)(=O)=O)N(C2CC2)CCN1c1cc(-c2cnc3ccc(C(F)F)nn23)ncn1 (single isomer, unassigned) [II-478, N-((1-Cyclopropyl-4-(6-(6-(difluoromethyl)imidazo[1,2-b]pyridazin-3-yl)pyrimidin-4-yl)-3-methylpiperazin-2-yl)methyl)methanesulfonamide]"
10 to 1000 nM,500 to 5000 nM,"CC1C(CNS(C)(=O)=O)OC(C)(C)CN1c1cc(-c2cnc3ccc(C(F)F)nn23)ncn1 (single isomer, unassigned) [II-484, N-((4-(6-(6-(Difluoromethyl)imidazo[1,2-b]pyridazin-3-yl)pyrimidin-4-yl)-3,6,6-trimethylmorpholin-2-yl)methyl)methanesulfonamide]"
> 1000 nM,> 5000 nM,"CC1C(CNS(C)(=O)=O)OC(C)(C)CN1c1cc(-c2cnc3ccc(C(F)F)nn23)ncn1 (single isomer, unassigned) [II-489, N-((4-(6-(6-(Difluoromethyl)imidazo[1,2-b]pyridazin-3-yl)pyrimidin-4-yl)-3,6,6-trimethylmorpholin-2-yl)methyl)methanesulfonamide]"
< 10 nM,< 500 nM,"C[C@H]1[C@@H](CNS(C)(=O)=O)OC(C)(C)CN1c1cc(-c2cnc3ccc(C(F)F)nn23)ncn1 (single isomer, unassigned) [II-490]"
10 to 1000 nM,500 to 5000 nM,"CS(=O)(=O)C1CCCN(c2cc(-c3cnc4ccc(C(F)F)nn34)ncn2)C1 (single isomer, unassigned) [II-529, 6-(Difluoromethyl)-3-(6-(3-(methylsulfonyl)piperidin-1-yl)pyrimidin-4-yl)imidazo[1,2-b]pyridazine]"
10 to 1000 nM,500 to 5000 nM,"CC1CC(N=S(C)(C)=O)CN(c2cc(-c3cnc4ccc(C(F)F)nn34)ncn2)C1 (single isomer, unassigned) [II-540, ((1-(6-(6-(Difluoromethyl)imidazo[1,2-b]pyridazin-3-yl)pyrimidin-4-yl)-5-methylpiperidin-3-yl)imino)dimethyl-λ^6-sulfanone]"
10 to 1000 nM,500 to 5000 nM,"CC1CC(CNS(C)(=O)=O)C(C)N(c2cc(-c3cnc4ccc(C(F)F)nn34)ncn2)C1 (single isomer, unassigned) [II-545, N-((1-(6-(6-(Difluoromethyl)imidazo[1,2-b]pyridazin-3-yl)pyrimidin-4-yl)-2,5-dimethylpiperidin-3-yl)methyl)methanesulfonamide]"
< 10 nM,< 500 nM,"C[C@H]1[C@@H](N=S(C)(C)=O)CCCN1c1cc(-c2cnc3ccc(C(F)F)nn23)ncn1 (single isomer, unassigned) [II-593]"
